Results taken from patent US20120295845A1, “IMIDAZO-PYRAZOLES AS GPR119 INHIBITORS” (Pfizer Inc, priority 2009, published 2012).
“And” between values parts separate entries of the source, which are not always exact repeats. Equal entries are not always repeated.

Biological target: T1, human GPR119 (Homo sapiens, UniProt Q8TDV5)
T1 construct: host or cells: HEK293-CRE beta-lactamase cells
T1 sequence (Q8TDV5 1-335): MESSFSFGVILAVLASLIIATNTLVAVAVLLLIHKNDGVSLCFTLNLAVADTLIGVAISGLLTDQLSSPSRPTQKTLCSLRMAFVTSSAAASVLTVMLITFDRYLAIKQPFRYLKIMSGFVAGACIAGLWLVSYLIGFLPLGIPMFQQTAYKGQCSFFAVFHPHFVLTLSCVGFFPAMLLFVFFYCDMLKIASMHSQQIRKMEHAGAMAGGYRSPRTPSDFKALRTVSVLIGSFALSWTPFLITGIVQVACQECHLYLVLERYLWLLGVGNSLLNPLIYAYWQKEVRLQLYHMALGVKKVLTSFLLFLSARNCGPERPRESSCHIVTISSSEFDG
Assay: cAMP functional assay (HTRF, hGPR119 HEK-CRE beta-lactamase cells)
Assay type: cell-based
Conditions: one value per run; for EC50: hGPR119 HEK-CRE beta-lactamase cells, HTRF cAMP, 30 min incubation with IBMX; for Intrinsic Activity* (cAMP) / Emax: percent of maximal activity relative to standard GPR119 agonist (WO2005121121) at 10 μM; for Emax: read-out: Intrinsic Activity* (cAMP)
Experimental: GPR119 agonist activity was also determined with a cell-based assay utilizing an
HTRF (Homogeneous Time-Resolved Fluorescence) cAMP detection kit (cAMP dynamic 2 Assay Kit; Cis Bio cat # 62AM4PEC) that measures cAMP levels in the cell. The method is a competitive immunoassay between native cAMP produced by the cells and the cAMP labeled with the dye d2. The tracer binding is visualized by a Mab anti-cAMP labeled with Cryptate. The specific signal (Le. energy transfer) is inversely proportional to the concentration of cAMP in either standard or sample.
Specifically, hGPR119 HEK-CRE beta-lactamase cells (Invitrogen 2.5×10^7/mL; the same cell line used in the beta-lactamase assay described above) are removed from cryopreservation and diluted in growth medium (Dulbecco's modified Eagle medium high glucose (DMEM; Gibco Cat # 11995-065), 1% charcoal dextran treated fetal bovine serum (CD serum; HyClone Cat # SH30068.03), lx MEM Nonessential amino acids (Gibco Cat # 15630-080) and 25 mM HEPES pH 7.0 (Gibco Cat # 15630-080)). The cell concentration was adjusted to 1.5×10^5 cells/mL and 30 mLs of this suspension was added to a T-175 flask and incubated at 37 degrees Celsius in a humidified environment in 5% carbon dioxide. After 16 hours (overnight), the cells were removed from the T-175 flask (by rapping the side of the flask), centrifuged at 800×g and then re-suspended in assay medium (1×HBSS+CaCl2+MgCl2 (Gibco Cat # 14025-092) and 25 mM HEPES pH 7.0 (Gibco Cat # 15630-080)). The cell concentration was adjusted to 6.25×10^5 cells/mL with assay medium and 8 μl of this cell suspension (5000 cells) was added to each well of a white Greiner 384-well, low-volume assay plate (VWR cat # 82051-458).
Varying concentrations of each compound to be tested were diluted in assay buffer containing 3-isobutyl-1-methylxanthin (1BMX; Sigma cat #15879) and added to the assay plate weds in a volume of 2 microL (final BMX concentration was 400 microM and final DMSO concentration was 0.58%). Following 30 minutes incubation at room temperature, 5 microL of labeled d2 cAMP and 5 microL of anti-cAMP antibody (both diluted 1:20 in cell lysis buffer; as described in the manufacturers assay protocol) were added to each well of the assay plate. The plates were then incubated at room temperature and after 60 minutes, changes in the HTRF signal were read with an Envision 2104 multilabel plate reader using excitation of 330 nm and emissions of 615 and 665 nm. Raw data were converted to nM cAMP by interpolation from a cAMP standard curve (as described in the manufacturer's assay protocol) and EC50 determinations were made from an agonist-response curves analyzed with a curve fitting program using a 4-paramter logistic dose response equation.

Row | SMILES | EC50 | Intrinsic Activity* (cAMP) | Emax [%]
1 | Cc1c(O[C@H]2CCN(C(=O)OC3(C)CC3)C[C@H]2F)ncnc1N1CCn2nccc21 (racemic) [Example 3, 1-Methylcyclopropyl (3R,4S)-4-{[6-(2,3-dihydro-1H-imidazo[1,2-b]pyrazol-1-yl)-5-methylpyrimidin-4-yl]oxy}-3-fluoropiperidine-1-carboxylate (racemic)] | 66 nM and 68 nM | 61% | 80
2 | Cc1c(O[C@H]2CCN(C(=O)OC(C)C)C[C@H]2F)ncnc1N1CCn2nccc21 (racemic) [Example 4, Isopropyl (3R,4S)-4-{[6-(2,3-dihydro-1H-imidazo[1,2-b]pyrazol-1-yl)-5-methylpyrimidin-4-yl]oxy}-3-fluoropiperidine-1-carboxylate (racemic)] | 32 nM and 45 nM | 28% | 31
3 | Cc1c(O[C@@H]2CCN(C(=O)OC3(C)CC3)C[C@@H]2F)ncnc1N1CCn2nccc21 (single isomer, unassigned) [Example 5] | 38 nM and 36 nM and 34 nM and 49 nM and 47 nM | 68% and 81% and 61% | 76
4 | Cc1c(O[C@H]2CCN(C(=O)OC3(C)CC3)C[C@H]2F)ncnc1N1CCn2nccc21 (single isomer, unassigned) [Example 6] | 40 nM and 140 nM and 48 nM and 88 nM and 82 nM | 82% and 89% and 76% and 83% | 86
5 | Cc1c(OC2CCN(C(=O)OC(C)C)CC2)ncnc1N1CCn2nccc21 [Example 1, Isopropyl 4-{[6-(2,3-dihydro-1H-imidazo[1,2-b]pyrazol-1-yl)-5-methylpyrimidin-4-yl]oxy}piperidine-1-carboxylate] | – | 27% | 28
6 | Cc1c(OC2CCN(C(=O)OC3(C)CC3)CC2)ncnc1N1CCn2nccc21 [Example 2, 1-Methylcyclopropyl 4-{[6-(2,3-dihydro-1H-imidazo[1,2-b]pyrazol-1-yl)-5-methylpyrimidin-4-yl]oxy}piperidine-1-carboxylate] | 117 nM and 255 nM | – | 71
